From patent US20180028424A1, “COMPOSITIONS FOR IMPROVING THE HEALTH OF HAIR, SKIN, AND NAILS” (FYBRANDS CORP., priority 2015, published 2018)

Key:
[1] = solubility of silibinin in acetone; assay type: physicochemical; settings: dissolved at 40-50° C. in Example 1
Protocol: Silibinin is soluble in acetone. We evaluated the possibility that silibinin could be first dissolved in acetone and then put into solution with an oil carrier. Since acetone evaporates to completion out of any open system, it could be removed leaving the silibinin in solution. One should keep in mind that acetone is incredibly flammable, and methods for removing acetone should be chosen carefully.
Briefly, a total desired amount of silibinin was dissolved into acetone at moderate temperature (40-50° C.). Capric/capryllic triglyceride was then added with mixing until completely mixed. […] The solution was cooled with stirring. Rosemary EO 1 was added once the temperature was below 50° C., and the product was poured into dispensing containers for use by test subjects.

[2] = solubility of silibinin in water; assay type: physicochemical
From the text: In certain embodiments, the disclosure provides compositions to deliver the active ingredient to the root bulb of the hair follicle. Silibinin is not soluble in water. Creating a cream formulation could possibly lead to clogging of pores at the site of the hair follicle, which could negatively affect restoration of the follicle. In certain aspects, the present disclosure relates to delivery of silibinin using oil-based formulations. Oil is absorbed into the stratum corneum and deeper layers of the skin where the root bulb cells are located.

solubility in acetone [1]: soluble
solubility in water [2]: not soluble
SMILES: COc1cc(C2Oc3cc([C@H]4Oc5cc(O)cc(O)c5C(=O)[C@@H]4O)ccc3OC2CO)ccc1O (some centres unmarked) [Silibinin]
